Laboratory results published in patent US20080085244A1, “Methods for identifying and using amyloid-inhibitory compounds” (Wyeth, priority 1999, published 2008).
Read-outs that look alike come from different tables or passages of the source.

Key:
[1] = Uterine weight in ovariectomized APP transgenic rodents; assay type: in vivo, transgenic mice and rats (human APP); settings: ovx APP transgenic rodents, E2 in chow 10 days, compared to untreated ovx
Excerpt: (§1) Transgenic APP and APP/PS rodents. Transgenic animals relevant to Alzheimer's Disease have been reviewed (Seabrook and Rosahl, Neuropharmacology, 1999, 38:1-17; see, Detailed Description, supra). Both mice and rats have been made transgenic for APP, for PS1 and for both genes, and with wild-type and FAD mutant forms of the genes,. One group of these animals is ovariectomized. 17β-Estradiol (E2) is purchased from Sigma (St. Louis, Mo.). Animals are fed ad libitum in a controlled lighting environment, using a casine-based, soy-free diet, as described in Example 1. […] E2 is administered per os by powdering the hormone in the soy-free chow. All animals are weighed at the beginning prior to treatment. Average daily food intake is determined prior to treatment as well.
(§2) Tissue collection. After treatment, all animals are sacrificed by decapitation. Trunk blood is collected for determination of E2 levels. Uteri are removed and weighed to establish the presence of atrophy due to estrogen deficiency or E2-induced hypertrophy. Brains are immediately removed and the cerebellum dissected away. The brain is divided into hemispheres which are snap-frozen and stored at −80° C.

[2] = system: Aβ40 and Aβ42 peptides; settings: physiological concentrations; human primary neuronal (embryonic cerebral cortex) cultures; cited from earlier work
[3] = system: brain Aβ (Aβ40, Aβ42); assay: Brain Aβ40, Aβ42 and total Aβ levels by ELISA of DEA brain extracts of ovariectomized guinea pigs; assay type: in vivo, guinea pig
Description: Maintenance of animals and treatment. Ovariectomized (ovx) and intact female guinea pigs were purchased from Hilltop Laboratories (Scottsdale, Pa.); ovx animals were 8 weeks old at the time of surgery. […] Throughout the study, the animals were fed ad libitum in a controlled lighting environment (12 h/12 h light/dark cycles). After the surgery, the ovx guinea pigs were put on a casein-based, soy-free diet (Purina, Richmond, Ind.) to exclude the presence of phytosteroids in the diet. The intact animals also began receiving soy-free food at approximately 8 weeks of age. […] Prior to the beginning of the treatment, all animals were weighed. The average daily food intake for each animal using this particular diet was determined in a preliminary experiment.
Tissue collection. At the end of the treatment, all animals were sacrificed by decapitation. […] The brains were immediately removed, and the cerebellum was dissected away from each brain. The rest of the brain was divided into hemispheres which were snap-frozen and stored at −80° C.
Preparation of Brain Extracts. Soluble Proteins from the Brains were Recovered using a modification of an established protocol (Savage et al., J. Neurosci., 1998, 18:1743-52). Briefly, the hemispheres were homogenized in 0.2% diethylamine (DEA)/50 mM NaCl at 1:10 w/v ratio, with 5-6 strokes of a Dounce homogenizer. The DEA homogenate was centrifuged for 90 min at 100,000 g. The DEA supernatants were neutralized to pH about 8.0 by addition of 1/10th vol. of 0.5M Tris-Cl pH 6.8, then aliquoted and snap-frozen. The pellets of the DEA extracts were solubilized in 2% SDS/PBS containing a cocktail of protease inhibitors (“Complete”, Boehringer Mannheim, Germany), sonicated and boiled. The protein concentrations of the DEA and SDS supernatants were determined using the BCA reagent assay kit (Pierce, Rockford, Ill.).
Detection of sAPPα, flAPP, Aβ40 and Aβ42. The amino acid sequence of APP from guinea pigs is 97% identical to the human APP homologue and the Aβ region is 100% identical to human Aβ (Beck et al., Biochim. Biophys. Acta, 1997, 1351:17-21), thus enabling use of well characterized Aβ antibodies to study the effects of estrogen on APP metabolism.
The levels of Aβ40 and Aβ42 were determined by Aβ40- and Aβ42-specific ELISA assays (Mehta et al, Neurosci. Lett., 1998, 241:13-16). For each animal, the levels of Aβ40, Aβ42, and total Aβ were standardized to brain tissue weight and expressed as ng (Aβ)/g (brain tissue, wet weight). In all experiments, animals were coded prior to tissue collection, and the treatment status of each animal was unknown to the investigators at the time of the assays.
Seven ovx guinea pigs (8 weeks old at the time of ovx) were used. After ovx, the animals were fed soy-free, casein-based diet to avoid the consumption of estrogenic phytosteroids. […] After the treatment, all animals were sacrificed, and blood, uteri, and brains were collected for analysis. […] The levels of Aβ40, Aβ42, and sAPPα in brain tissue were determined using Aβ40- and Aβ42-specific ELISA assays and quantitative immunoblotting, respectively, as described in Methods.

[4] = Uterine weight (E2-induced hypertrophy) in ovariectomized guinea pigs; assay type: in vivo, guinea pig
Description: Maintenance of animals and treatment. Ovariectomized (ovx) and intact female guinea pigs were purchased from Hilltop Laboratories (Scottsdale, Pa.); ovx animals were 8 weeks old at the time of surgery. 17β-estradiol (E2) was purchased from Sigma (St. Louis, Mo.). Throughout the study, the animals were fed ad libitum in a controlled lighting environment (12 h/12 h light/dark cycles). After the surgery, the ovx guinea pigs were put on a casein-based, soy-free diet (Purina, Richmond, Ind.) to exclude the presence of phytosteroids in the diet. The intact animals also began receiving soy-free food at approximately 8 weeks of age. […] E2 was administered per os by powdering the hormone into the soy-free chow. Prior to the beginning of the treatment, all animals were weighed. The average daily food intake for each animal using this particular diet was determined in a preliminary experiment.
Tissue collection. At the end of the treatment, all animals were sacrificed by decapitation. Trunk blood was collected for determination of E2 levels in the serum by radioimmunoassay (Diagnostic Products Laboratory). Uteri were removed and weighed to establish E2-induced hypertrophy. The brains were immediately removed, and the cerebellum was dissected away from each brain. The rest of the brain was divided into hemispheres which were snap-frozen and stored at −80° C.
Seven ovx guinea pigs (8 weeks old at the time of ovx) were used. After ovx, the animals were fed soy-free, casein-based diet to avoid the consumption of estrogenic phytosteroids. […] E2 was administered per os by powdering the hormone into the soy-free chow. […] After the treatment, all animals were sacrificed, and blood, uteri, and brains were collected for analysis. Uterine weights and serum E2 levels were determined to document the hormonal status. The levels of Aβ40, Aβ42, and sAPPα in brain tissue were determined using Aβ40- and Aβ42-specific ELISA assays and quantitative immunoblotting, respectively, as described in Methods.
At the end of the E2 treatment, all animals were sacrificed by decapitation, and blood, uteri, and brains were isolated and subjected to analysis.

[5] = system: brain Aβ; assay: Brain Aβ levels in ovariectomized APP transgenic rodents; assay type: in vivo, transgenic mice and rats (human APP); settings: ovx APP transgenic rodents; approaching the levels found in intact animals
Excerpt: Preparation of Brain Extracts.
Detection of sAPPα, flAPP, Aβ40 and Aβ42.

[6] = system: Aβ40 and Aβ42 peptides; settings: physiological concentrations; rodent primary neuronal (embryonic cerebral cortex) cultures; cited from earlier work
[7] = Serum E2 levels in ovariectomized APP transgenic rodents; assay type: in vivo, transgenic mice and rats (human APP); settings: ovx APP transgenic rodents, E2 in chow 10 days, compared to untreated ovx
Excerpt: as §1, §2

[8] = ovx + high-dose E2, 5 mg E2/kg BW/day per os, 10 days
[9] = ovx + low-dose E2, 1 mg E2/kg BW/day per os, 10 days

serum E2 levels after oral E2 [7]: dramatic increase
SMILES: C[C@]12CC[C@@H]3c4ccc(O)cc4CC[C@H]3[C@@H]1CC[C@@H]2O [E2, 17β-estradiol]
uterine effect of oral E2 [1]: uterine hypertrophy | levels of Aβ40 and Aβ42 peptides released [2]: decreased | average decrease in total Aβ levels in brain compared to ovx group ([3]; first experiment, 1 mg E2/kg BW/day per os, 10 days, p=0.09): 20% | Total Aβ (median) [3, 8]: 2.094 ngAβ/g brain tissue | Total Aβ mean +/− SEM [3, 8]: 1.998 +/− 0.175 ngAβ/g brain tissue | Total Aβ (median) [3, 9]: 2.063 ngAβ/g brain tissue | Total Aβ mean +/− SEM [3, 9]: 2.023 +/− 0.134 ngAβ/g brain tissue | average decrease in ovx-associated increase in brain Aβ levels (summary statement) ([3]; ovx guinea pigs, E2 for ten days beginning 8 weeks after ovx, p<0.01): 20% | average decrease for Aβ40 compared to ovx ([3]; second experiment, low-dose E2 10 days, p<0.01): 18% | average decrease for Aβ42 compared to ovx ([3]; second experiment, low-dose E2 10 days, p=0.033): 21% | average decrease of total brain Aβ levels compared to ovx ([3]; second experiment, low-dose E2 (1 mg/kg BW/day) 10 days, p<0.01): 18% | increase in uterine weight, ovx+E2 group compared to ovx group ([4]; first experiment, 1 mg E2/kg BW/day per os, 10 days, p=0.0003): greater than 3 fold | state of uteri ([4]; high-dose E2 for 10 days, weights did not exceed the low-dose group): uterine hypertrophy | state of uteri ([4]; low-dose E2 for 10 days, weights comparable to or higher than intact group): hypertrophied | Uterine weight mean +/− SEM [4, 8]: 1.03 ± 0.08 g | Uterine weight median [4, 8]: 1.055 g | Uterine weight mean +/− SEM [4, 9]: 1.4 ± 0.18 g | Uterine weight median [4, 9]: 1.37 g | levels of brain Aβ after E2 treatment [5]: decrease | levels of Aβ40 and Aβ42 peptides released [6]: decreased
